According to US5489575A, “Polypeptides and their use” (Boman; Hans G., priority 1991, dated 1996):
No end group written: not given here.

How the values were obtained:
Format in all cases: cell-based
[1] = test system: Escherichia coli Bd2221/75; test: Inhibition zone assay of PR-peptide on different bacteria; conditions: strain Bd2221/75
Protocol: (§1) The antibacterial activity of the polypeptide of this invention was determined by inhibition zone assay as described by Hultmark et al. (Hultmark, D., Engstrom, A., Anderson, K., Steiner, H., Bennich, H. and Boman, H. G. (1983). Insect immunity. Attacins, a family of antibacterial proteins from Hyalophora cecropia. EMBO J. 2, 571-576).
(§2) Log-phase bacteria were grown to a density of 100 units on a Klett-summerson photoelectric colorimeter. They were diluted 50 times with LB medium and 50 μl of the bacteria suspension was mixed with 6 ml of 1.0% agarose in LB medium (w/v) and poured on the petri dishes (Falcon 1001 Optilux) with inner diameter 8.65 cm. For E. coli this procedure will give about 2×10^5 bacteria per plate.
(§3) The plates were left for 1 hour at room temperature, and holes with 3 mm diameter were made on the solidified agarose. 100 μl of fractions were dried in a speedvac and dissolved in 10 μl H2 O, of which 3 μl was applied to the holes. After 30 min diffusion time the plates were incubated at 30° C. overnight. The diameter of the inhibition zones were measured and the relative unit activity was calculated from a standard curve which was constructed on varying amount of Cecropin A versus activity. One microgram of Cecropin A corresponds to 1000 units of activity.
(§4) The maximum concentration of PR-peptide was 2,5 mM and 3 μl was applied to each well in thin agarose plates seeded with test bacterium. LV values are obtained from a dilution serie and is the lowest concentration giving killing (Muirmark, D., Engstrem, A., Anderson, K., Steiner, H., Bennich, H. and Boman, H. G. (1983))

Streptococcus pyrogenes = test: as above
Protocol: as §1, §2, §3, §4

Bacillus megaterium Bm11 = test: as above; conditions: strain Bm11
Protocol: as §1, §2, §3, §4

[2] = test system: Salmonella typhimurium L12; test: as above; conditions: strain L12
Protocol: as §1, §2, §3, §4

Proteus vulgaris Pv11 = test: as above; conditions: strain Pv11
Protocol: as §1, §2, §3, §4

[3] = test system: Pseudomones aeruginose OT97; test: as above; conditions: strain OT97
Protocol: as §1, §2, §3, §4

Escherichia coli K12 D21 = test: as above; conditions: strain D21
Protocol: as §1, §2, §3, §4

[4] = test system: Staphylococcus aureus Cowan 1; test: as above; conditions: strain Cowan 1
Protocol: as §1, §2, §3, §4

Bacillus subtilis Bs11 = test: as above; conditions: strain Bs11
Protocol: as §1, §2, §3, §4

[5] = test system: Acinetobacter calcoaceticus Ac11; test: as above; conditions: strain Ac11
Protocol: as §1, §2, §3, §4

Bacillus megaterium = test: Inhibition zone assay repeated with Bacillus megaterium (Example 4); conditions: times higher than in relation to E. coli
Protocol: as §1, §2
as §3, with “of activity. […]” for “of activity.”

[6] = lowest concentration giving killing, from dilution series
[7] = maximum concentration 2,5 mM, 3 μl per well, thin agarose plates

With “RRRPRPPYLPRPRPPPFFPPRLPPRIPPGFPPRFPPRFP [PR-peptide, bactericidal polypeptide isolated from pig small intestine]” the LC value [1, 6] was 0,3 μM, the Max zone [1, 7] was 17,6 mm and the LC value (Streptococcus pyrogenes; [6]) was 2 µM. For the same sequence, the Max zone (Streptococcus pyrogenes; [7]) was 14,9 mm, the LC value (Bacillus megaterium Bm11; [6]) was 0,3 μM and the Max zone (Bacillus megaterium Bm11; [7]) was 17,4 mm. For the same sequence, the LC value [2, 6] was 1 µM, the Max zone [2, 7] was 15,2 mm and the LC value (Proteus vulgaris Pv11; [6]) was 300 µM. The Max zone (Proteus vulgaris Pv11; [7]) was 3,5 mm, the LC value [3, 6] was 200 µM and the Max zone [3, 7] was 4,5 mm. For the same sequence, the LC value (Escherichia coli K12 D21; [6]) was 0,3 μM, the Max zone (Escherichia coli K12 D21; [7]) was 18,3 mm and the LC value [4, 6] was 200 µM. The Max zone [4, 7] was 3,7 mm, the LC value (Bacillus subtilis Bs11; [6]) was 15 µM and the Max zone (Bacillus subtilis Bs11; [7]) was 10,3 mm. For the same sequence, the LC value [5, 6] was 3 µM, the Max zone [5, 7] was 12,5 mm and the “average activity against Bacillus megaterium relative to E. coli” value (Bacillus megaterium) was “about 3 times”.
